Results: patent US8940705B2, “Method of treating disease and selectively modulating transcriptional regulation by a glucocorticoid receptor by administering aclacinomycin and dexamethasone” (The Regents of the University of California, priority 2009, dated 2015)

Key:
Type in all cases: cell-based
GR [1] = assay: qPCR of endogenous GR target genes, cell line not distinguished (FIG. 4B, 5D); conditions: with dex, 24 hr
Text: (§1) Quantitative PCR. Total RNA isolation used Trizol and Pure Link (Invitrogen). […] Rpl19 expression was used for data normalization.

GR [2] = biological target: T1, GR (Homo sapiens, UniProt P04150); assay: Multi-promoter fluorescent protein reporter compound screen for GR modulators; parameters: endogenous in cells; host or cells: A549; conditions: A549 cells, library compounds 2.5 μM with dex 100 nM; reporter fluorescence relative to plate mean
T1 sequence (P04150 1-777): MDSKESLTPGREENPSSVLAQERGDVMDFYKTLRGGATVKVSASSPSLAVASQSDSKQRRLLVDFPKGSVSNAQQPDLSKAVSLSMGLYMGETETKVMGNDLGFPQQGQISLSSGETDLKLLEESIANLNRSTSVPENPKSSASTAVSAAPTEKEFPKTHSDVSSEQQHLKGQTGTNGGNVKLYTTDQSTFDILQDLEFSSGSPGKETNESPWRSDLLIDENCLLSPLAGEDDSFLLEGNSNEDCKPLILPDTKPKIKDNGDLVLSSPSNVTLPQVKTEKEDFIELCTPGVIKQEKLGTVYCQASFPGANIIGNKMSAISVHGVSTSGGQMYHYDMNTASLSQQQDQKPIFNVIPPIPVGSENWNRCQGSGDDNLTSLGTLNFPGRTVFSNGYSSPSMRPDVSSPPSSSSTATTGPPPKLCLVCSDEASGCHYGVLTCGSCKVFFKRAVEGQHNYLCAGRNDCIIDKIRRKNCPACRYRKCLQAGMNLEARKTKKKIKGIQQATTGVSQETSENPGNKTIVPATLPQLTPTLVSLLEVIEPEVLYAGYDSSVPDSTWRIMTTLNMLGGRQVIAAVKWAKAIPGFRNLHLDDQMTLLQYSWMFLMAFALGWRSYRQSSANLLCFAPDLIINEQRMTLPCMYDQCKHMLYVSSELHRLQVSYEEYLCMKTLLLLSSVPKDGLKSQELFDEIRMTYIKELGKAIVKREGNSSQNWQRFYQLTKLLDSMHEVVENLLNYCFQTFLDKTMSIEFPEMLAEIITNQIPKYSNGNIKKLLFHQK
Method: Compound Screen. A549 cells were transfected with an equal mixture of pENaC-CFP, pGILZ-YFP, pFKBP5-OFP (1.3 μg each), or with pSV40-ChFP (4 μg). The next day, cells were mixed (˜1.8×10^4 of the cells triple-transfected with pENaC-CFP, pGILZ-YFP, pFKBP5-OFP; ˜2×10^3 cells transfected with pSV40-ChFP) and replated into 96 well plates (Costar 3603). 2 hours later, library compounds (2.5 μM) and dex (100 nM) were added using a Biomek robot. The following day, cells were fixed for 4 minutes in 4% paraformaldehyde and fluorescence was measured sequentially for each reporter using a Safire plate reader (Tecan). Hits were scored based on the mean and standard deviation (s.d.) of the experimental wells on each plate. Criteria for a hit were if one reporter was more than 1.5×s.d. from the mean in duplicate, or if two reporters were more than 0.8×s.d. from the mean in duplicate. If the control SV40-ChFP was more than 2×s.d. from the mean in a single plate, or 0.8×s.d. in duplicate plates (in the same direction as the GR reporters), the well was not scored as a hit.
We used the system of Example 1 to screen a library of 1040 natural products and FDA-approved drugs for modulators of GR signaling (Abbott, A. Nature 417:109). The screen design is outlined in FIG. 2. The pENaC-CFP, pGILZ-YFP, and pFKBP5-OFP reporters indicated GR signaling, while pSV40-mCh, an internal control, excluded non-specific transcription inhibitors and toxins. We screened the library in duplicate in the presence of saturating dex (100 nM). Z′, a function that reflects the ability to discriminate between control and experimental wells (Zhang, J. H. et al., J Biomol Screen 4:67-73 (1999)), was determined for dex treatment of each GR reporter. The Z′ values were: Z′(ENAC-CFP)=0.68; Z′(GILZ-YFP)=0.64; and Z′(FKBP5-OFP)=0.66. These indicate that the screen should efficiently identify compounds that increase or decrease fluorescence from any of the three experimental promoters (Zhang, J. H. et al., J Biomol Screen 4:67-73 (1999)).

GR [3] = biological target: T1, GR; assay: Luciferase assays, GR-responsive reporters, A549 cells; parameters: endogenous in cells; host or cells: A549; conditions: for Dose dependent: whether the drug acted dose-dependently on GR-luciferase reporters; for GR activity (GR-mediated induction of pENaC-luc reporter): pENaC-luc and pSV40-rl
Method: (§2) Transfections. The day prior to transfection, ˜3×10^5 cells were plated in 6-well dishes. Transfections used Lipofectamine 2000 (Invitrogen). 4 μg of total plasmid DNA were used for each transfection. For A549 cells, 500 μL of DNA/lipofectamine complex was added to 1.5 ml of DMEM with pen/strep and 5% FBS. For U2OS cells, 500 μl of DNA/lipofectamine complex was added to 1.5 ml of Optimem. After 3-4 hours of incubation, media was replaced with standard growth media.
(§3) Luciferase assays. Luciferase assays used the Promega Dual-Luciferase Reporter system. Briefly, cells were transfected with various firefly luciferase plasmids and pSV40-RL at a ratio of 10:1. The day after transfection, cells were split into 96-well dishes and treated with dex and various drugs. Cells were harvested in 50 μl 1XPLB (Promega) 12-18 hr after drug treatment and luciferase assays were performed on 10 μl of lysate. Luminscence was detected using an Ultra Evolution plate reader (Tecan).

GR [4] = biological target: T2, GR (Rattus norvegicus, UniProt P06536); assay: Luciferase assays, GR-responsive reporters, U2OS-GR cells; conditions: pENaC-luc and pSV40-rl, with dex
T2 construct: expressed in transfected cells; host or cells: U2OS-GR
T2 sequence (P06536 1-795): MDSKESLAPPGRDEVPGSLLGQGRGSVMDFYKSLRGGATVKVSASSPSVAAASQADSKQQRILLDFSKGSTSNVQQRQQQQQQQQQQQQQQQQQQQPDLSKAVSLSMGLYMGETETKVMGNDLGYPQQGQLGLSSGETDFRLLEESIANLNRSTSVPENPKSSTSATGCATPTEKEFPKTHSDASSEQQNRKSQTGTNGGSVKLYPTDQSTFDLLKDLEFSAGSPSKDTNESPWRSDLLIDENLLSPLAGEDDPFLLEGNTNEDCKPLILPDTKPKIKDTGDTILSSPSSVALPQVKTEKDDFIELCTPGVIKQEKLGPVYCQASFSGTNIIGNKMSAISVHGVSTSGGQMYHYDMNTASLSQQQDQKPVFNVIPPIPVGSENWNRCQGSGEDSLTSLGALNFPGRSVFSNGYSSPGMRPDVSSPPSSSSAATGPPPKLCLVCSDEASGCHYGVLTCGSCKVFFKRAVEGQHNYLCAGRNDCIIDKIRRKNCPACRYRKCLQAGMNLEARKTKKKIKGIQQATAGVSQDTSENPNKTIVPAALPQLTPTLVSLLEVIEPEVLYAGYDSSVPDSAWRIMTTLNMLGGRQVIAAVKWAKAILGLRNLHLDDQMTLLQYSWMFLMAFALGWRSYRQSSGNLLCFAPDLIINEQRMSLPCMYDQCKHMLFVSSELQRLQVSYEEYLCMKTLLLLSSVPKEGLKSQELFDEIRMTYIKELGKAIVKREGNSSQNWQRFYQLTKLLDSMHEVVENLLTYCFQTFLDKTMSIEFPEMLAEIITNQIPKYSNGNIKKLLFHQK
Method: as §2, §3

GR [5] = biological target: T1, GR; assay: qPCR of endogenous GR target genes, A549 cells; parameters: endogenous in cells; host or cells: A549; conditions: with dex, RPL19 reference
Text: as §1

ENaC-CFP (GR [2])	GILZ-YFP (GR [2])	Dose dependent (GR [3])	Compound	FKBP5-OFP (GR [2])	GR activity (GR-mediated induction of pENaC-luc reporter) (GR [3]; A549 cells, with dex)	other results
No effect	↓ (0.8 to 2 s.d. less than the mean (↓))	no	O=c1oc2c(O)c(O)cc3c(=O)oc4c(O)c(O)cc1c4c23 [Ellagic Acid]	↓ (0.8 to 2 s.d. less than the mean (↓))	–	–
No effect	↓ (0.8 to 2 s.d. less than the mean (↓))	no	C[N+]1(C)CCCC(OC(=O)C(O)(c2ccccc2)c2ccccc2)C1 (stereo not shown) [Mepenzolate]	↓ (0.8 to 2 s.d. less than the mean (↓))	–	–

Second part, the compound before the results:

Compound	ENaC-CFP (GR [2])	GILZ-YFP (GR [2])	Dose dependent (GR [3])	FKBP5-OFP (GR [2])	GR activity (GR-mediated induction of pENaC-luc reporter) (GR [3]; A549 cells, with dex)	other results
Cc1cc(C2CCCCC2)n(O)c(=O)c1 [Ciclopirox olamine]	↓^c (0.8 to 2 s.d. less than the mean (↓))	↓ (0.8 to 2 s.d. less than the mean (↓))	dose dependent effects and yes	no effect	–	expression of endogenous GR target genes (qPCR), overall (GR [1]): general GR antagonist
COc1cccc2c1C(=O)c1c(O)c3c(c(O)c1C2=O)C[C@@](O)(C(C)=O)C[C@@H]3O[C@H]1C[C@H](N)[C@H](O)[C@H](C)O1 [daunorubicin]	–	–	–	–	inhibited GR	–
CCCCCC(=O)O[C@]1(C(C)=O)CC[C@H]2[C@@H]3CCC4=CC(=O)CC[C@]4(C)[C@H]3CC[C@@]21C [Hpg. caproate, Hydroxyprogesterone caproate]	No effect	↓↓↓ (more than 2 standard deviations (s.d.) less than the mean (↓↓↓))	yes	↓↓↓ (more than 2 standard deviations (s.d.) less than the mean (↓↓↓))	–	expression of endogenous GR target genes (qPCR), overall (GR [1]): selectively modulated endogenous GR target genes; induction of endogenous ENaC (qPCR) (GR [1]): no impact; induction of endogenous FKBP5 (qPCR) (GR [1]): reduced induction; induction of endogenous GILZ (qPCR) (GR [1]): reduced induction; Dose dependent (GR [3]; listed as Hpg): dose dependent effects
a amanitin	–	–	–	–	–	effect on GR-dependent reporter pENaC-luc compared with GR-independent constitutive reporter pSV40-rl (GR [3]; A549 cells, with dex): reduced the activity of both reporters to similar extents
O=C1C=CC(=C(c2ccc(O)cc2)c2ccc(O)cc2)C=C1 [Rosolic Acid]	↓ (0.8 to 2 s.d. less than the mean (↓))	No effect	yes	↓ (0.8 to 2 s.d. less than the mean (↓))	–	expression of endogenous GR target genes (qPCR), overall (GR [1]): selectively modulated endogenous GR target genes; induction of endogenous ENaC (qPCR) (GR [1]): inhibited; induction of endogenous FKBP5 (qPCR) (GR [1]): inhibited; induction of endogenous GILZ (qPCR) (GR [1]): failed to inhibit; Dose dependent (GR [3]; listed as rosolic acid): dose dependent effects
CS(=O)(=O)c1ccc([C@@H](O)[C@@H](CO)NC(=O)C(Cl)Cl)cc1 [Thiamphenicol]	No effect	No effect	no	↑↑↑^e (more than 2 s.d. greater than the mean (↑↑↑))	–	–
COC(=O)[C@H]1[C@H]2C[C@@H]3c4[nH]c5cc(OC)ccc5c4CCN3C[C@H]2C[C@@H](OC(=O)c2cc(OC)c(OC)c(OC)c2)[C@@H]1OC [Reserpine]	↑ (0.8 to 2 s.d. greater than the mean (↑))	↑ (0.8 to 2 s.d. greater than the mean (↑))	no	↑ (0.8 to 2 s.d. greater than the mean (↑))	–	–
COc1cccc2c1C(=O)c1c(O)c3c(c(O)c1C2=O)C[C@@](O)(C(=O)CO)C[C@@H]3O[C@H]1C[C@H](N)[C@H](O)[C@H](C)O1 [Doxorubicin]	–	–	–	–	inhibited GR	–
O=C1c2c(O)ccc(O)c2C(=O)c2c(NCCNCCO)ccc(NCCNCCO)c21 [Mitoxantrone]	↓↓↓ (more than 2 standard deviations (s.d.) less than the mean (↓↓↓))	↓↓↓ (more than 2 standard deviations (s.d.) less than the mean (↓↓↓))	yes	↓↓↓ (more than 2 standard deviations (s.d.) less than the mean (↓↓↓))	antagonists of GR	GR activity (luciferase reporter) (GR [4]): inhibited GR
O=C1C=CC(=C(c2ccccc2)c2ccc(O)cc2)C=C1 [NSC55861]	–	–	–	–	dose dependently reduced GR activity	–
O=C(/C=C/c1ccccc1)/C=C/c1ccccc1O [NSC636788]	–	–	–	–	dose dependently reduced GR activity	–
CC[C@@]1(O)C[C@H](O[C@H]2C[C@H](N(C)C)[C@H](O[C@H]3C[C@@H]4O[C@H]5CC(=O)[C@H](C)O[C@H]5O[C@@H]4[C@H](C)O3)[C@H](C)O2)c2c(cc3c(c2O)C(=O)c2c(O)ccc(O)c2C3=O)[C@H]1C(=O)OC [Cin B, Cinerubin (Cin) B]	–	–	–	–	potently inhibited GR activity	expression of endogenous GR target genes (relative mRNA, qPCR) (GR [5]): inhibited GR at the tested promoters
